Measurements taken from patent US20090326234A1, “(S)-(-)-Amlodipine Camsylate or Hydrate Thereof And Pharmaceutical Composition Comprising Same” (Hanmi Pharm Co., Ltd., priority 2006, published 2009).
Read-outs that look alike come from different tables or passages of the source.

Details: for Purity (area %): HPLC; for degradation: after 36 hours exposure to sunlight; for appearance after exposure to sunlight: exposed to sunlight
[1] = Initial, before exposure to sunlight

Protocol: 100 mg each of the above-mentioned 6 salts was respectively placed in 6 test tubes to prepare a total of 36 samples (6 samples per salt), and they were exposed to sunlight for 36 hours. Then, samples of each salt were taken at 6 hour-intervals and stored in a cool and dark place. After 36 hours, each sample was diluted with a 20 mM ammonium acetate buffer solution (pH=5.0)—acetonitrile mixture (1:1, v/v) and analyzed by HPLC under the following conditions: • Column: Symmetry C8 (4.6 mm×100 mm, 3.5 μm, Water, US) • Eluent: 1 l of a solution of 7 g perchloric acid monohydrate and 1.74 g potassium monohydrogen phosphate in purified water, which adjusted to pH 2.8 by the addition of phosphoric acid.

| SMILES | Purity (area %) [1] [area %] | Purity (area %) (exposed to sunlight 6 hours) | Purity (area %) (exposed to sunlight 12 hours) | Purity (area %) (exposed to sunlight 18 hours) | Purity (area %) (exposed to sunlight 24 hours) | Purity (area %) (exposed to sunlight 30 hours) | Purity (area %) (exposed to sunlight 36 hours) | degradation | appearance after exposure to sunlight |
| --- | --- | --- | --- | --- | --- | --- | --- | --- | --- |
| CC1(C)C2CCC1(CS(=O)(=O)O)C(=O)C2.CCOC(=O)C1=C(COCCN)NC(C)=C(C(=O)OC)[C@@H]1c1ccccc1Cl.O (racemic) [(±)-10-Camsylate hydrate of Ex. 3, S-(−)-amlodipine (±)-10-camsylate hydrate] | 99.8 | 99.9 | 99.8 | 99.7 | 99.6 | 99.4 | 99.3 | – | – |
| CC1(C)[C@@H]2CC[C@@]1(CS(=O)(=O)O)C(=O)C2.CCOC(=O)C1=C(COCCN)NC(C)=C(C(=O)OC)[C@@H]1c1ccccc1Cl [(1S)-(+)-10-Camsylate anhydride of Ex. 2, S-(−)-amlodipine (1S)-(+)-10-camsylate anhydride] | 99.9 | 99.9 | 99.9 | 99.9 | 99.8 | 99.7 | 99.7 | – | – |
| CC1(C)[C@@H]2CC[C@@]1(CS(=O)(=O)O)C(=O)C2.CCOC(=O)C1=C(COCCN)NC(C)=C(C(=O)OC)[C@@H]1c1ccccc1Cl.O [(1S)-(+)-10-Camsylate hydrate of Ex. 1, S-(−)-amlodipine (1S)-(+)-10-camsylate hydrate] | 99.9 | 99.9 | 99.9 | 99.8 | 99.8 | 99.7 | 99.7 | – | – |
| CC1(C)[C@H]2CC[C@]1(CS(=O)(=O)O)C(=O)C2.CCOC(=O)C1=C(COCCN)NC(C)=C(C(=O)OC)[C@@H]1c1ccccc1Cl [(R)-Camsylate of Ref. Ex. 1, S-(−)-amlodipine (R)-camsylate] | 99.8 | 99.9 | 99.7 | 99.0 | 98.1 | 96.2 | 94.8 | about 5% | color change of their surface from off-white to brown, and they becomes partially melted |
| CCOC(=O)C1=C(COCCN)NC(C)=C(C(=O)OC)[C@@H]1c1ccccc1Cl.O=S(=O)(O)c1ccccc1 [Besylate, (S)-(−)-amlodipine besylate] | 99.8 | 99.9 | 99.4 | 98.5 | 96.4 | 94.4 | 93.4 | about 7% | color change of their surface from off-white to brown, and they becomes partially melted |
| CCOC(=O)C1=C(COCCN)NC(C)=C(C(=O)OC)C1c1ccccc1Cl (stereo not drawn) [Nicotinate dehydrate, (s)-(−)-amlodipine nicotinate dihyrate] | 99.8 | 99.6 | 99.0 | 98.3 | 98.3 | 98.2 | 97.9 | ~2% | – |
